Experiments:
[1] = Stability in human liver microsomes assessed as parent compound remaining at 15 uM in absence of NADPH incubated for 60 mins; type: ADME, Microsome; conditions: liver microsomes, read-out: Stability
CYP2C19 = CYP2C19 (Homo sapiens, UniProt P33261); assay: Inhibition of CYP2C19 (unknown origin) at 10 uM relative to control; type: ADME
[2] = Stability in rat liver microsomes assessed as parent compound remaining at 15 uM in presence of NADPH incubated for 60 mins; type: ADME, Microsome; conditions: read-out: Stability
CYP2D6 = CYP2D6 (Homo sapiens, UniProt P10635); assay: Inhibition of CYP2D6 (unknown origin) at 10 uM relative to control; type: ADME
[3] = Stability in rat liver microsomes assessed as parent compound remaining at 15 uM in absence of NADPH incubated for 60 mins; type: ADME, Microsome; conditions: read-out: Stability
[4] = Dissociation constant, pKa of the compound (OH) by UV metric assay; type: physicochemical
[5] = Effective permeability from apical to basolateral side in PAMPA method; type: ADME; conditions: read-out: Peff
CYP2C9 = CYP2C9 (Homo sapiens, UniProt P11712); assay: Inhibition of CYP2C9 (unknown origin) at 10 uM relative to control; type: ADME
[6] = Stability in mouse liver microsomes assessed as parent compound remaining at 15 uM in presence of NADPH incubated for 60 mins; type: ADME, Microsome; conditions: read-out: Stability
[7] = Effective permeability assessed as mass retention by PAMPA method; type: ADME
[8] = Dissociation constant, pKa of the compound (NH3*) by pH metric assay; type: physicochemical
[9] = Stability in human liver microsomes assessed as parent compound remaining at 15 uM in presence of NADPH incubated for 60 mins; type: ADME, Microsome; conditions: liver microsomes, read-out: Stability
[10] = Dissociation constant, pKa of the compound (OH) by pH metric assay; type: physicochemical
[11] = Stability in mouse liver microsomes assessed as parent compound remaining at 15 uM in absence of NADPH incubated for 60 mins; type: ADME, Microsome; conditions: read-out: Stability
CYP1A2 = target: T1, CYP1A2 (Homo sapiens, UniProt P05177); assay: Inhibition of CYP1A2 (unknown origin) at 10 uM relative to control; type: ADME
T1 sequence (P05177 whole entry): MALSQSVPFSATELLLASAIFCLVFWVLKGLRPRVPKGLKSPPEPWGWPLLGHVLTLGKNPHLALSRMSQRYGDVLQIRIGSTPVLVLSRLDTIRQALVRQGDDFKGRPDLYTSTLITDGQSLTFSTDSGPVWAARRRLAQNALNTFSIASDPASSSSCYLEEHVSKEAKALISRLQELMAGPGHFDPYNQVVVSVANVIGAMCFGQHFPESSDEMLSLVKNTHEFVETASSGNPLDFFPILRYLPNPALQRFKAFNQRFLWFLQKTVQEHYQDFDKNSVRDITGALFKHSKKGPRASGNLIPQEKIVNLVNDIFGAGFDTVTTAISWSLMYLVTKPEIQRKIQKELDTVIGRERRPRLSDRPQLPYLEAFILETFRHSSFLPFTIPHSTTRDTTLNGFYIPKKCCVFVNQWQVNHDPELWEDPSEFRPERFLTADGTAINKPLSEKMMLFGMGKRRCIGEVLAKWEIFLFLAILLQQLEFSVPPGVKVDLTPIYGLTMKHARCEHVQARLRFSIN

[12] = Inhibition of human recombinant beta-tryptase pre-incubated for 3 hrs before N-tert-butoxycarbonyl-Gln-Ala-Arg-AMC substrate addition and measured every 30 secs for 15 mins by spectrometry
CYP3A4 = CYP3A4 (Homo sapiens, UniProt P08684); assay: Inhibition of CYP3A4 (unknown origin) at 10 uM relative to control; type: ADME
[13] = Apparent permeability from apical to basolateral side in MDCK cells; type: ADME, cell-based, Canis lupus familiaris; conditions: dog
[14] = Inhibition of beta-tryptase in human HMC1 cells assessed as effect on A23187-induced degranulation; type: cell-based
[15] = Inhibition of beta-tryptase in human HMC1 cells assessed as effect on tryptase activity by measured cell lysis; type: cell-based
Homo sapiens = species: Homo sapiens; assay: Inhibition of human recombinant beta-tryptase assessed as remaining enzyme activity at 10 uM pre-incubated for 3 hrs before N-tert-butoxycarbonyl-Gln-Ala-Arg-AMC substrate addition and measured after 8 hrs by spectrometry relative to control
[16] = Dissociation constant, pKa of the compound (B(OH)2) by UV metric assay; type: physicochemical
[17] = Dissociation constant, pKa of the compound (B(OH)2) by pH metric assay; type: physicochemical
[18] = Plasma concentration in mouse xenografted with human HMC1 cells at 10 mg/kg, iv dosed at time 0 and again 24 hrs later and measured at 24 hrs after second dose by LC-MS/MS analysis; type: ADME, organism-based
[19] = Drug concentration in tumor of mouse xenografted with human HMC1 cells at 10 mg/kg, iv dosed at time 0 and again 24 hrs later and measured at 8 hrs after second dose by LC-MS/MS analysis; type: ADME, organism-based, Neoplasm; conditions: read-out: Drug uptake
[20] = Drug concentration in tumor of mouse xenografted with human HMC1 cells at 10 mg/kg, iv dosed at time 0 and again 24 hrs later and measured at 0 hrs after second dose by LC-MS/MS analysis; type: ADME, organism-based, Neoplasm; conditions: read-out: Drug uptake
[21] = Plasma concentration in mouse xenografted with human HMC1 cells at 10 mg/kg, iv dosed at time 0 and again 24 hrs later and measured at 8 hrs after second dose by LC-MS/MS analysis; type: ADME, organism-based
[22] = Plasma concentration in mouse xenografted with human HMC1 cells at 10 mg/kg, iv dosed at time 0 and again 24 hrs later and measured at 2 hrs after second dose by LC-MS/MS analysis; type: ADME, organism-based
[23] = Drug concentration in tumor of mouse xenografted with human HMC1 cells at 10 mg/kg, iv dosed at time 0 and again 24 hrs later and measured at 48 hrs after second dose by LC-MS/MS analysis; type: ADME, organism-based, Neoplasm; conditions: read-out: Drug uptake
[24] = Drug concentration in tumor of mouse xenografted with human HMC1 cells at 10 mg/kg, iv dosed at time 0 and again 24 hrs later and measured at 2 hrs after second dose by LC-MS/MS analysis; type: ADME, organism-based, Neoplasm; conditions: read-out: Drug uptake
[25] = Plasma concentration in mouse xenografted with human HMC1 cells at 10 mg/kg, iv dosed at time 0 and again 24 hrs later and measured at 0 hrs after second dose by LC-MS/MS analysis; type: ADME, organism-based
[26] = Drug concentration in tumor of mouse xenografted with human HMC1 cells at 10 mg/kg, iv dosed at time 0 and again 24 hrs later and measured at 24 hrs after second dose by LC-MS/MS analysis; type: ADME, organism-based, Neoplasm; conditions: read-out: Drug uptake

Sequence of CYP2C19 (P33261 whole entry): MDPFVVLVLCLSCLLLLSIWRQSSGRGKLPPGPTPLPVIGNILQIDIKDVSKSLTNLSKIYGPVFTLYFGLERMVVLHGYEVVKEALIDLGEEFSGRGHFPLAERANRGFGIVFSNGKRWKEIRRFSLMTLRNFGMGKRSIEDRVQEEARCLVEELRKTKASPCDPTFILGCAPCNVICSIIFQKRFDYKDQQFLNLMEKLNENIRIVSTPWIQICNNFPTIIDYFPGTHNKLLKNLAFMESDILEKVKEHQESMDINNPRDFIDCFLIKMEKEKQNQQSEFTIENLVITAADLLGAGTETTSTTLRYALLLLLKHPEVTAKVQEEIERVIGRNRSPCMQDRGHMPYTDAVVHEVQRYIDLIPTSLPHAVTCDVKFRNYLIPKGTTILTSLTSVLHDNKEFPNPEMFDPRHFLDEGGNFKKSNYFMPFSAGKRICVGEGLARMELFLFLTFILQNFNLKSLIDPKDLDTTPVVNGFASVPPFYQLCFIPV
Sequence of CYP2D6 (P10635 whole entry): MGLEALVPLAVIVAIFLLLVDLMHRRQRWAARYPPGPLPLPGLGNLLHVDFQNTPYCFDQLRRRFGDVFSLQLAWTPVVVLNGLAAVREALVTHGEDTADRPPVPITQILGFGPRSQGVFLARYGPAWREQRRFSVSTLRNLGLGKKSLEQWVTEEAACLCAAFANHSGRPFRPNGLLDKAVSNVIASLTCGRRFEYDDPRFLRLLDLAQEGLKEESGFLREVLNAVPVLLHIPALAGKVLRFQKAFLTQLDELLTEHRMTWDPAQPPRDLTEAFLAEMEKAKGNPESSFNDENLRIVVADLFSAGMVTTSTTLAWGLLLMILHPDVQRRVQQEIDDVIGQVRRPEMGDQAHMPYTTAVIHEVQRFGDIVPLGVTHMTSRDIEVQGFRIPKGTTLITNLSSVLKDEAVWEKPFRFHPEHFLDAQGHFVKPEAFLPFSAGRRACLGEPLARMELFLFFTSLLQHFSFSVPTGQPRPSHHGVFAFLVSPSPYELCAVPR
Sequence of CYP2C9 (P11712 whole entry): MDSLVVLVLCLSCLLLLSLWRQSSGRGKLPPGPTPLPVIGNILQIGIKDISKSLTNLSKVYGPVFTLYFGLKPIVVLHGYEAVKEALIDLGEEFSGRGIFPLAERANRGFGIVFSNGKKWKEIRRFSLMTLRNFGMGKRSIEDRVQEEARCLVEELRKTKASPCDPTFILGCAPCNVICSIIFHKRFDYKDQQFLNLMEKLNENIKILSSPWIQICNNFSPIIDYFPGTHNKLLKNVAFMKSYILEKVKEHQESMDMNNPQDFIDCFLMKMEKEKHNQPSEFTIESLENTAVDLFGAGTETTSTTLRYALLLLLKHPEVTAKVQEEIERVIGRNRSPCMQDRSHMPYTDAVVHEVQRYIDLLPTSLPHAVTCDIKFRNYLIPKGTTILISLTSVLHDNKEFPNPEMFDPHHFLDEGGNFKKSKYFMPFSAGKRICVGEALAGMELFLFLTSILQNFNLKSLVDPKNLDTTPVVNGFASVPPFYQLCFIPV
Sequence of CYP3A4 (P08684 whole entry): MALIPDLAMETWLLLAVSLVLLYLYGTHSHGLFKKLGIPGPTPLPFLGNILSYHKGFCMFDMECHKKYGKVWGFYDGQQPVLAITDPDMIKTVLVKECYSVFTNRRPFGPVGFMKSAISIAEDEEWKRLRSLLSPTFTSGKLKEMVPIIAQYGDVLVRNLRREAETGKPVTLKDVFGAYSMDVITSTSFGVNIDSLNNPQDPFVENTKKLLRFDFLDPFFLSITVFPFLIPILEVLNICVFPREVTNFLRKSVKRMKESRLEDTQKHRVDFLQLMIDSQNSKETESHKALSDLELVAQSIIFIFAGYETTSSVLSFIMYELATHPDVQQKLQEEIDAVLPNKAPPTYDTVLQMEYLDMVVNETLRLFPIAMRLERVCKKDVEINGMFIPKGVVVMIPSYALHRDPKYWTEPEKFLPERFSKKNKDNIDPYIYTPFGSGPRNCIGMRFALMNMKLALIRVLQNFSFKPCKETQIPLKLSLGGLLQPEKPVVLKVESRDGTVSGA

| remaining at 1 h, 15 µM [1] | inhibition at 10 µM (CYP2C19) | remaining at 1 h, 15 µM [2] | inhibition at 10 µM (CYP2D6) | remaining at 1 h, 15 µM [3] | Papp [5] | inhibition at 10 µM (CYP2C9) | remaining at 1 h, 15 µM [6] | Activity [7] | pKa [8] | remaining at 1 h, 15 µM [9] | remaining at 1 h, 15 µM [11] | inhibition at 10 µM (CYP1A2) | inhibition at 10 µM (CYP3A4) | Papp A→B [13] | SMILES | IC50 [12] | further results |
| --- | --- | --- | --- | --- | --- | --- | --- | --- | --- | --- | --- | --- | --- | --- | --- | --- | --- |
| 11% | 77% | 37% | 47% | 73% | 0.01 ×10⁻⁶ cm/s | 75% | 18% | 26.3% | 9.67 | 8% | 36% | 18% | 19% | 0.31 ×10⁻⁶ cm/s | NCc1cccc(C2CCN(C(=O)/C=C/c3ccc(O)c(O)c3)CC2)c1 | 3.84 µM | pKa [4]: 7.37; pKa [10]: 8.11 |
|  |  |  |  |  |  |  |  |  |  |  |  |  |  |  | NCc1ccc2c(c1)C1(CCN(C(=O)c3cccc(-c4cccc(B5Oc6cc(C(=O)N7CCC8(CC7)COc7ccc(CN)cc78)cc(Cl)c6O5)c4)c3)CC1)CO2 |  | IC50 [14]: 0.24 µM; IC50 [15]: 5.45 µM; Activity (Homo sapiens): 50% |
| 97% | 80% | 100% | 79% | 100% | 2.06 ×10⁻⁶ cm/s | 97% | 99% | 96.2% | 9.53 | 100% | 100% | 45% | 27% | 0.28 ×10⁻⁶ cm/s | NCc1cccc(C2CCN(C(=O)c3cccc4ccc(B(O)O)cc34)CC2)c1 | 15.8 µM | pKa [16]: 8.51; pKa [17]: 8.18 |
|  |  |  |  |  |  |  |  |  |  |  |  |  |  |  | NCc1ccc2c(c1)C1(CCN(C(=O)c3cccc(-c4cccc(B(O)O)c4)c3)CC1)CO2.O=C(O)C(F)(F)F |  | concentration at 24 h [18]: 0.14 nM; concentration at 8 h [19]: 107 nM; concentration at 0 h [20]: 27.9 nM; concentration at 8 h [21]: 43 nM; concentration at 2 h [22]: 1290 nM; concentration at 48 h [23]: 0.56 nM; concentration at 2 h [24]: 554 nM; concentration at 0 h [25]: 0.53 nM; concentration at 24 h [26]: 2.14 nM |

From ChEMBL document CHEMBL4342466, “Novel, Self-Assembling Dimeric Inhibitors of Human β Tryptase” (J Med Chem, 2020)
